Consider 2 compounds from patent US20240336577A1, “PYRAZINE COMPOUND, AND METHOD OF PREPARATION AND USE THEREOF” (SHENZHEN OLIVE BIOPHARMACEUTICALS CO., LTD, priority 2020, published 2024).

Common to all, as to format: in vivo
Assay [1] has as its system db/db mice. Put plainly: Glucose and lipid metabolism in db/db mice, 56 d administration. To be noted: once/d 56 d, TMP 5.0 mg/kg, mean±SEM, n=6; for Creatinine / Total cholesterol / Triglyceride / Urea: Losartan 10 mg/kg; for Creatinine / Total cholesterol / Triglyceride / Urea / Glucose determination / High-density lipoprotein cholesterol / Low-density lipoprotein cholesterol: OLB-1/OLB-2 13.32 mg/kg; for Glycated hemoglobin / Glucose determination / High-density lipoprotein cholesterol / Low-density lipoprotein cholesterol: metformin 225 mg/kg/d; for Glycated hemoglobin: OLB-1/OLB-2 13.32 mg/kg (0.037 mmol/kg). The method, then:
Mice of a normal control group and model mice were given normal saline 10 ml/kg/d, metformin hydrochloride enteric-coated tablets 225 mg/kg/d, Losartan 10 mg/kg, TMP (5.0 mg/kg, 0.037 mmol/kg), and OLB-1 and OLB-2 (13.32 mg/kg, 0.037 mmol/kg), at a volume of 10 mL/kg, once/d, for continuous administration of 56 d, blood lipids and blood glucose related indexes were measured after blood collection. Data were presented as mean±SEM; n=6 per group. One-way ANOVA and multiple range test were adopted to show differences between the two groups. a, p<0.05 vs. db/db group; c, p<0.001 vs. db/db group.

The subject of assay [2] is db/db mice. The assay can be described thus: Urinary protein level in db/db mice, 90 d administration. As to conditions: once/d 90 d, OLB-1 11.7 mg/kg, OLB-2 11.67 mg/kg, FIG. 2. The method, then: Mice of a normal control group and model mice were given normal saline 10 ml/kg/d, Losartan 10 mg/kg, TMP (5.0 mg/kg, 0.037 mmol/kg), OLB-1 (11.7 mg/kg, 0.037 mmol/kg), and OLB-2 (11.67 mg/kg, […]), at a volume of 10 mL/kg, once/d, for continuous administration of 90 d, urine protein levels were measured after urine collection. Data were presented as mean±SEM; n=6 per group. One-way ANOVA and multiple range test were adopted to show differences between the two groups. a, p<0.05 vs. db/db group; c, p<0.001 vs. db/db group.

The subject of assay [3] is db/db mice. Put plainly: Biochemical and metabolic indicators in db/db mice, 90 d administration. As to conditions: once/d 90 d, Losartan 15 mg/kg/d, TMP 5.0 mg/kg, OLB-1 2.31 mg/kg, OLB-2 2.3 mg/kg, mean±SEM, n=6.
The subject of assay [4] is 5*FAD mice. Put plainly: Pro-inflammatory factors in hippocampus of 5*FAD mice, ELISA. As to conditions: 6-month-old 5*FAD mice treated 3 months, low and high dosage; FIG. 3 and FIG. 4. The method, then:
After 6-month-old 5*FAD mice were treated with OLB-1 and OLB-2 for 3 months, the levels of IL-1β (A) and TNFα (B) in mouse hippocampus were detected by ELISA. 5*FAD mice were treated with low-dosage and high-dosage OLB-1 (low dosage: 2.31 mg/kg, 0.007 mmol/kg; high dosage: 11.70 mg/kg, 0.037 mmol/kg, the same below) and OLB-2 (low dosage: 2.3 mg/kg, 0.007 mmol/kg; high dosage: 11.67 mg/kg, 0.037 mmol/kg, the same below) and TMP (5.0 mg/kg, 0.037 mmol/kg, the same below). Data were presented as mean±SEM; n=5 to 6 per group. One-way ANOVA and multiple range test were adopted to show differences between the two groups. **p<0.01, ***p<0.001 vs. WT group; #p<0.05, ##p<0.01, ###p<0.001 vs. 5*FAD group.

The subject of assay [5] is 5*FAD mice. Put plainly: Memory impairment in 5*FAD mice, electrical jumping (errors jumping off the platform). As to conditions: 6-month-old 5*FAD mice treated 3 months, low and high dosage; FIG. 5. The method, then:
After 6-month-old 5*FAD mice were treated with OLB-1 and OLB-2 for 3 months, the number of errors that the mice jumped off the platform was detected by electrical jumping. 5*FAD mice were treated with low-dosage and high-dosage OLB-1 (low dosage: 2.31 mg/kg, 0.007 mmol/kg; high dosage: 11.70 mg/kg, 0.037 mmol/kg) and OLB-2 (low dosage: 2.3 mg/kg, 0.007 mmol/kg; high dosage: 11.67 mg/kg, 0.037 mmol/kg) and TMP (5.0 mg/kg, 0.037 mmol/kg, the same below). Data were presented as mean±SEM; n=10 per group. One-way ANOVA and multiple range test were adopted to show differences between the two groups. ***p<0.001 vs. WT group; #p<0.05, ##p<0.01 vs. 5*FAD group.

Assay [6] concerns ALS (SOD-G93A) transgenic mice. The assay can be described thus: Pole climbing test in ALS transgenic mice. To be noted: different dosages of OLB-1, OLB-2, riluzole 5 mg/kg, FIG. 6. The text has this: The pole climbing test is generally used to evaluate a motor coordination ability and motor delay of the limbs in mice. A homemade wooden pole about 50 cm long and about 1 cm in diameter was wrapped with medical gauze to increase friction of the wooden pole. The wooden pole was put vertically on a horizontal table, the mouse tail was grabbed such that the mouse head was facing down, with limbs grabbing a top of the pole; after releasing the mouse tail, timing was started, and it was ensured that the mouse crawled downward without external force, and the time was recorded for the mouse to climb from the top of the pole to a bottom platform (a standard was that mouse hind limbs were landed on the ground). […] An average of the three pole climbing times of mice was calculated as a final pole climbing time. […] Data were presented as mean±SEM; n=10 per group. One-way ANOVA and multiple range test were adopted to show differences between the two groups. ***p<0.001 vs. WT (normal control) group; #p<0.05, ##p<0.01 vs. ALS (SOD-G93A) group.

Assay [7] relates to ALS (SOD-G93A) transgenic mice. Put plainly: Limb grip force test in ALS transgenic mice. To be noted: different dosages of OLB-1, OLB-2, riluzole 5 mg/kg, FIG. 7. The method, then: The limb grip force test is used directly to assess muscle strength in mice. […] After the start of administration, the grip force of the mice was tested every two weeks, and the measurement was repeated three times for each mouse, and the maximum among the three results was taken as a maximum grip force of the mice. […] Data were presented as mean±SEM; n=10 per group. One-way ANOVA and multiple range test show differences between the two groups. **p<0.01, ***p<0.001 vs. WT (normal control) group; #p<0.05, ##p<0.01 vs. ALS (SOD-G93A) group.

For assay [8], the system named is 6-OHDA Parkinson's disease rats. Put plainly: APO-induced rotations in 6-OHDA Parkinson's disease rats. To be noted: APO-induced 6-OHDA rats, 2 weeks of treatment; different dosages of OLB-1, OLB-2; levodopa 25 mg/kg; FIG. 8. The text has this:
There is no rotation in a sham-operated group, and there is no significant difference between the groups injected with 6-OHDA, and there are about 180 rotations. […] Data were presented as mean±SEM; n=9-10 per group. One-way ANOVA and multiple range test were adopted to show differences between the two groups. *p<0.05, **p<0.01 vs. before 6-OHDA group.

Molecules are shown by their SMILES.

Consider `Cc1nc(C)c(COC(=O)OCCc2ccc(O)cc2)nc1C` [OLB-1], for which, in the assay with db/db mice [1], the Creatinine is on record as 48.7 ± 3.68(a) μmol/L, the Total cholesterol is recorded as 8.36 ± 2.63(c) mM, the Triglyceride was 10.88 ± 0.92(b) mg/dL and the Urea is given as 8.03 ± 0.61(c) mmol/L. In the assay with db/db mice [1], the Glycated hemoglobin is recorded as 643.06 ± 61.53(c) nmol/L, the Glucose determination is 25.99 ± 4.46(c) mM, the High-density lipoprotein cholesterol is recorded as 1.81 ± 0.15(b) mM and the Low-density lipoprotein cholesterol is given as 0.69 ± 0.04(c) mM. Also, the urinary protein levels result in the assay on db/db mice [2] is on record as “significantly reduced urinary protein levels”. In addition, in the assay on db/db mice [3], the Creatinine is reported as 48.7 ± 3.68(a) μmol/L, the Urea is given as 8.03 ± 0.61(c) mmol/L and the Urine albumin/creatinine was 438.69 ± 83.23(c) mg/g. In the assay on 5*FAD mice [4], the “proinflammatory cytokine IL-1β in hippocampus” value was “significantly reduced” and the “proinflammatory cytokine TNF-α in hippocampus” value was “significantly reduced”. For the same compound, in the assay with 5*FAD mice [5], the “memory impairment (number of errors jumping off the platform)” value is reported as “significantly improve memory impairment”. In assay [6], the “pole climbing time / symptoms of bradykinesia” value is reported as “significantly improve the symptoms of bradykinesia”. Besides, the limb grip force result in assay [7] is “effectively increase the limb force”. Besides, in assay [8], the number of rotations entry was “effectively reduce the number of rotations”.

Turning to `Cc1nc(C)c(CNC(=O)OCCc2ccc(O)cc2)nc1C` [OLB-2], in the assay with db/db mice [1], the Creatinine is 46.28 ± 2.76(b) μmol/L, the Total cholesterol is on record as 7.38 ± 0.34(c) mM, the Triglyceride is 10.65 ± 0.54(b) mg/dL and the Urea is recorded as 7.48 ± 0.35(c) mmol/L. Besides, in the assay on db/db mice [1], the Glycated hemoglobin was 595.38 ± 52.47(c) nmol/L, the Glucose determination is on record as 26.61 ± 1.15(c) mM, the High-density lipoprotein cholesterol is reported as 1.87 ± 0.18(b) mM and the Low-density lipoprotein cholesterol is on record as 0.51 ± 0.03(c) mM. Besides, in the assay on db/db mice [2], the urinary protein levels entry is listed as “significantly reduced urinary protein levels”. Besides, in the assay on db/db mice [3], the Creatinine was 46.28 ± 2.76(b) μmol/L, the Urea is listed as 7.48 ± 0.35(c) mmol/L and the Urine albumin/creatinine is recorded as 477.51 ± 90.68(c) mg/g. In the assay with 5*FAD mice [4], the “proinflammatory cytokine IL-1β in hippocampus” value is on record as “significantly reduced” and the “proinflammatory cytokine TNF-α in hippocampus” value was “significantly reduced”. Also, the “memory impairment (number of errors jumping off the platform)” value with 5*FAD mice [5] is listed as “significantly improve memory impairment”. In addition, the “pole climbing time / symptoms of bradykinesia” value in assay [6] was “significantly improve the symptoms of bradykinesia”. Also, the limb grip force entry in assay [7] is recorded as “effectively increase the limb force”. Moreover, the number of rotations result in assay [8] was “effectively reduce the number of rotations”.
